Like-named read-outs stand apart in the source and are kept apart here.
Tests used:
Phi6 [1] = conditions: static, pH 3.6 (8.7 M acetic acid), mAb 5 mg/mL, 22-25° C.
Procedure: In this representative experiment, the purpose was to evaluate the inactivation kinetics of an enveloped bacteriophage virus (Phi6) at low pH conditions. The objective was to determine the exposure time required for complete inactivation.
A monoclonal antibody (mAb) was purified by standard Protein A chromatography and prepared at a concentration of 5 mg/mL. […] Human serum albumin (HSA) (0.25% v/v) was added for Phi6 stability. Following confirmation of pH, the virus spike was added to the sample reservoir containing the mAb and vortexed to ensure a well-mixed system. The Phi6 target spike level was 1×10^7 pfu (plaque forming units)/mL. Within 0.3 minutes of the virus addition, a 1 mL sample was removed and transferred to a tube containing a previously determined volume of 2 M Tris Base, pH 10 to neutralize (pH 6-8) the sample and quench the inactivation step. The tube was vortexed after the base addition. This process of removing and neutralizing a sample was repeated for each time point. These experiments were carried out at room temperature, 22-25° C. Control samples at the initial and final time points were also analyzed. For the control samples, the pH was maintained at the feed pH level (pH 6.3) but the samples were diluted similarly to the actual samples using the background buffer at pH 6.3.

[2] = test system: xenotropic murine leukemia virus (XMuLV); conditions: static, mAb 18 g/L; for Time to Complete Inactivation: XMuLV
Procedure: The purpose of this study was to evaluate the virus inactivation kinetics of xenotropic murine leukemia virus (XMuLV, an enveloped virus commonly used for clearance studies of monoclonal antibody products, under low pH conditions. The objective was to determine the exposure time required for complete inactivation.
Following confirmation of pH, the virus spike was added to the sample reservoir containing the mAb and vortexed to ensure a well-mixed system. The XMuLV target spike level was 1×10^7 TCID50/mL (TCID50=Tissue Culture Infection Dose) (4% spike v/v). Within 0.3 minutes of the virus addition, a 1 mL sample was removed and transferred to a tube containing a previously determined volume of 2 M Tris Base to neutralize (pH 6-8) the sample and quench the inactivation step. The tube was vortexed after the base addition. This process of removing and neutralizing a sample was repeated for each time point. These experiments were carried out at room temperature, 22-25° C. Control samples at the initial and final time points were also analyzed. For the control samples, the pH was maintained at the feed pH level but the samples were diluted similarly to the actual samples using the background buffer.
The neutralized samples were assayed for infectivity using the cell-based TCID50 infectivity assay using PG4 indicator cells (Bolton G, Cabatingan M, Rubino M, et al. Normal-flow virus filtration:detection and assessment of the endpoint in bio-processing. Biotechnol Appl Biochem 2005; 42: 133-42). To mitigate cytotoxicity and quench the virus inactivation, samples were diluted 1:50 with ten-fold serial dilutions in cell culture media and then 100 μl aliquots of each dilution were added to a 96-well plate. Following incubation at 37° C. in 5% CO2 for 7 days, infected wells were visually assessed for cytopathic effect (CPE). Titers and LRVs were calculated using standard methods (ICH. Guidance on Viral Safety Evaluation of Biotechnology Products Derived From Cell Lines of Human or Animal Origin. In: Use ICoHoTRfRoPfH, ed. Geneva, Switzerland: ICH, 1998). To determine the LRV at each time point, the titer of the time point was subtracted from the titer of the closest control time point.

Phi6 [3] = conditions: in-line continuous flow, 1 M acetic acid added at 0.75 mL/min to 1 mL/min feed
Procedure: This representative example describes the use of a continuous flow system to carry out low pH virus inactivation.
A system consisting of a main feed pump, an acid addition pump, and a base addition pump was used to inactivate virus under continuous flow conditions. A mAb solution was spiked with Phi6 and was connected to the main feed pump inlet. The Phi6 target spike level was 1×10^8 pfu/mL. […] The feed flow rate was set to 1 mL/min. Acid was added into the main stream at a flow rate of 0.75 mL/min. The fluid then passed through a static mixer and a length of tubing designed to contain a particular volume (targeting a desired residence time). Different lengths of tubing were used to contain the required volume for each target average residence time (1, 2, 3, 4, 5, 15 min) after accounting for the dead volume from the valves and pH probe between the acid addition point and the beginning of the incubation chamber. […] At the outlet of the incubation chamber, the material was neutralized by the addition of base into the main line at a flow rate of 0.4 mL/min. The fluid passed through another static mixer and then the neutralized samples were collected at the outlet and assayed for infectivity using the plaque assay. These experiments were carried out at room temperature, 22-25° C. Control samples were also assayed. For the control samples, the pH was maintained at the feed pH level but the samples were diluted similarly to the actual samples using the background buffer.

Phi6 [4] = assay: Static detergent-based virus inactivation, plaque assay for infectivity; format: cell-based, bacteriophage virus
Procedure: The purpose of this study was to examine detergent-based virus inactivation kinetics. In this representative experiment, two different concentrations (0.1% and 1.0% v/v) of a detergent, Triton X-100, were used to inactivate a bacteriophage virus, Phi6.
The virus spike was added and vortexed to ensure a well-mixed system. […] Detergent was added to reach the desired concentrations of 0.1% and 1.0% v/v. At various time points, a sample was removed and quenched by adding it to buffer at a 1:1000 dilution ratio. The tubes were vortexed after the detergent addition.

CC(=O)O [acetic acid]
Phi6 Log Reduction Values (LRV) (Phi6 [1]; inactivation time 1 min): ≥6.8 | Phi6 Log Reduction Values (LRV) (Phi6 [1]; inactivation time 2 min): ≥6.8 | Phi6 Log Reduction Values (LRV) (Phi6 [1]; inactivation time 3 min): ≥6.8 | Phi6 Log Reduction Values (LRV) (Phi6 [1]; inactivation time 4 min): ≥6.8 | Phi6 Log Reduction Values (LRV) (Phi6 [1]; inactivation time 5 min): ≥6.8 | Phi6 Log Reduction Values (LRV) (Phi6 [1]; inactivation time 15 min): ≥6.8 | Time to Complete Inactivation ([2]; pH 4.0 (8.7 M acetic acid)): ≤15 min | Time to Complete Inactivation ([2]; pH 4.2 (8.7 M acetic acid)): ≤30 min | XMuLV LRV ([2]; pH 3.5 (8.7 M acetic acid), inactivation time 0.3 min): 4.0 | XMuLV LRV ([2]; pH 3.5 (8.7 M acetic acid), inactivation time 1 min): ≥5.4 | XMuLV LRV ([2]; pH 3.5 (8.7 M acetic acid), inactivation time 2 min): ≥5.4 | XMuLV LRV ([2]; pH 3.5 (8.7 M acetic acid), inactivation time 3 min): ≥5.4 | XMuLV LRV ([2]; pH 3.5 (8.7 M acetic acid), inactivation time 4 min): ≥5.4 | XMuLV LRV ([2]; pH 3.5 (8.7 M acetic acid), inactivation time 5 min): ≥5.5 | XMuLV LRV ([2]; pH 3.5 (8.7 M acetic acid), inactivation time 15 min): ≥5.5 | XMuLV LRV ([2]; pH 3.5 (8.7 M acetic acid), inactivation time 30 min): ≥5.5 | XMuLV LRV ([2]; pH 3.5 (8.7 M acetic acid), inactivation time 60 min): ≥5.5 | XMuLV LRV ([2]; pH 3.7 (8.7 M acetic acid), inactivation time 0.3 min): 3.6 | XMuLV LRV ([2]; pH 3.7 (8.7 M acetic acid), inactivation time 1 min): ≥5.5 | XMuLV LRV ([2]; pH 3.7 (8.7 M acetic acid), inactivation time 2 min): ≥5.5 | XMuLV LRV ([2]; pH 3.7 (8.7 M acetic acid), inactivation time 3 min): ≥5.5 | XMuLV LRV ([2]; pH 3.7 (8.7 M acetic acid), inactivation time 4 min): ≥5.5 | XMuLV LRV ([2]; pH 3.7 (8.7 M acetic acid), inactivation time 5 min): ≥5.7 | XMuLV LRV ([2]; pH 3.7 (8.7 M acetic acid), inactivation time 15 min): ≥5.7 | XMuLV LRV ([2]; pH 3.7 (8.7 M acetic acid), inactivation time 30 min): ≥5.7 | XMuLV LRV ([2]; pH 3.7 (8.7 M acetic acid), inactivation time 60 min): ≥5.7 | XMuLV LRV ([2]; pH 4.0 (8.7 M acetic acid), inactivation time 0.3 min): 1.6 | XMuLV LRV ([2]; pH 4.0 (8.7 M acetic acid), inactivation time 1 min): 4.7 | XMuLV LRV ([2]; pH 4.0 (8.7 M acetic acid), inactivation time 2 min): 5.2 | XMuLV LRV ([2]; pH 4.0 (8.7 M acetic acid), inactivation time 3 min): 5.3 | XMuLV LRV ([2]; pH 4.0 (8.7 M acetic acid), inactivation time 4 min): 5.2 | XMuLV LRV ([2]; pH 4.0 (8.7 M acetic acid), inactivation time 5 min): 5.6 | XMuLV LRV ([2]; pH 4.0 (8.7 M acetic acid), inactivation time 15 min): ≥5.4 | XMuLV LRV ([2]; pH 4.0 (8.7 M acetic acid), inactivation time 30 min): ≥5.4 | XMuLV LRV ([2]; pH 4.0 (8.7 M acetic acid), inactivation time 60 min): ≥5.4 | XMuLV LRV ([2]; pH 4.2 (8.7 M acetic acid), inactivation time 0.3 min): 1.5 | XMuLV LRV ([2]; pH 4.2 (8.7 M acetic acid), inactivation time 1 min): 3.3 | XMuLV LRV ([2]; pH 4.2 (8.7 M acetic acid), inactivation time 2 min): 3.5 | XMuLV LRV ([2]; pH 4.2 (8.7 M acetic acid), inactivation time 3 min): 3.9 | XMuLV LRV ([2]; pH 4.2 (8.7 M acetic acid), inactivation time 4 min): 4.0 | XMuLV LRV ([2]; pH 4.2 (8.7 M acetic acid), inactivation time 5 min): 4.2 | XMuLV LRV ([2]; pH 4.2 (8.7 M acetic acid), inactivation time 15 min): 4.6 | XMuLV LRV ([2]; pH 4.2 (8.7 M acetic acid), inactivation time 30 min): ≥5.7 | XMuLV LRV ([2]; pH 4.2 (8.7 M acetic acid), inactivation time 60 min): ≥5.7 | Phi6 LRV (Phi6 [3]; average residence time 1 min): ≥6.8 | Phi6 LRV (Phi6 [3]; average residence time 2 min): ≥6.8 | Phi6 LRV (Phi6 [3]; average residence time 3 min): ≥6.8 | Phi6 LRV (Phi6 [3]; average residence time 4 min): ≥6.8 | Phi6 LRV (Phi6 [3]; average residence time 5 min): ≥6.8 | Phi6 LRV (Phi6 [3]; average residence time 15 min): ≥6.8

Triton X-100
Phi6 LRV (Phi6 [4]; 0.1% v/v Triton X-100, mAb 15 mg/mL, inactivation time 1 min): ≥5.2 | Phi6 LRV (Phi6 [4]; 0.1% v/v Triton X-100, mAb 15 mg/mL, inactivation time 2 min): ≥5.2 | Phi6 LRV (Phi6 [4]; 0.1% v/v Triton X-100, mAb 15 mg/mL, inactivation time 3 min): ≥5.2 | Phi6 LRV (Phi6 [4]; 0.1% v/v Triton X-100, mAb 15 mg/mL, inactivation time 4 min): ≥5.2 | Phi6 LRV (Phi6 [4]; 0.1% v/v Triton X-100, mAb 15 mg/mL, inactivation time 5 min): ≥5.2 | Phi6 LRV (Phi6 [4]; 0.1% v/v Triton X-100, mAb 15 mg/mL, inactivation time 15 min): ≥5.2 | Phi6 LRV (Phi6 [4]; 0.1% v/v Triton X-100, mAb 15 mg/mL, inactivation time 30 min): ≥5.2 | Phi6 LRV (Phi6 [4]; 1.0% v/v Triton X-100, mAb 15 mg/mL, inactivation time 1 min): ≥6.2 | Phi6 LRV (Phi6 [4]; 1.0% v/v Triton X-100, mAb 15 mg/mL, inactivation time 2 min): ≥6.2 | Phi6 LRV (Phi6 [4]; 1.0% v/v Triton X-100, mAb 15 mg/mL, inactivation time 3 min): ≥6.2 | Phi6 LRV (Phi6 [4]; 1.0% v/v Triton X-100, mAb 15 mg/mL, inactivation time 4 min): ≥6.2 | Phi6 LRV (Phi6 [4]; 1.0% v/v Triton X-100, mAb 15 mg/mL, inactivation time 5 min): ≥6.2 | Phi6 LRV (Phi6 [4]; 1.0% v/v Triton X-100, mAb 15 mg/mL, inactivation time 15 min): ≥6.2 | Phi6 LRV (Phi6 [4]; 1.0% v/v Triton X-100, mAb 15 mg/mL, inactivation time 30 min): ≥6.2
